Assays:
Botrytis cinerea RR-4 = assay: Disease suppressive activity against gray mold, cucumber seedling cotyledon test; format: in vivo; conditions: strain RR-4 (multi-resistant strain), incubated at 20°C for three days
Procedure: (§1) The disease suppressive activity of the present compounds I-a, I-c (and I-b), I-d (and I-e), I-f, I-g, I-h, and I-i against the gray mold was tested by the following procedure. A solution of the present compound having a predetermined concentration was coated,with an absorbent cotton block, on the cotyledon of a cucumber seedling seven days after seeding. One day after the coating, an agar disk having a diameter of 5 mm containing Botrytis cinerea was put on the coated cotyledon, the plant was incubated at 20°C for three days, and the disease suppresive activity of the tested compound was observed. In Table 4, Botrytis cinerea RR-4 is a strain resistant to antimicrobial agents (multi-resistant strain), isolated from a diseased seedling of egg plant, and Botrytis cinerea S-9 is a strain sensitive to antimicrobial agents, isolated from a diseased petal of orange blossom. Note, the extent of the disease suppressive effect is expressed by symbols + (no lesion), ± (lesion having a diameter of less than 10 mm formed), and - (lesion having a diameter of not less than 10 mm formed).

Botrytis cinerea S-9 = assay: as above; format: in vivo; conditions: strain S-9 (sensitive to antimicrobial agents), incubated at 20°C for three days
Procedure: as §1

[1] = 32 ppm coated on cucumber seedling cotyledon
[2] = 125 ppm coated on cucumber seedling cotyledon
[3] = 8 ppm coated on cucumber seedling cotyledon

SMILES	Disease suppressive effect to Botrytis cinerea (Botrytis cinerea RR-4; [1])	Disease suppressive effect to Botrytis cinerea (Botrytis cinerea RR-4; [2])	Disease suppressive effect to Botrytis cinerea (Botrytis cinerea S-9; [1])	Disease suppressive effect to Botrytis cinerea (Botrytis cinerea S-9; [2])	Disease suppressive effect to Botrytis cinerea (Botrytis cinerea RR-4; [3])	Disease suppressive effect to Botrytis cinerea (Botrytis cinerea S-9; [3])
CCC1C=CC(=O)OC1C=CC(O)(CCN)C(CC(O)C=CC=CC1CCCCC1)OP(=O)(O)O (stereo not drawn) [I-a]	- (- (lesion having a diameter of not less than 10 mm formed))	+	- (- (lesion having a diameter of not less than 10 mm formed))	+		
CCC1C=CC(=O)OC1C=CC(O)(CCN)C(CC(O)C=CC=CC1CCCC(OC(=O)C2CCCCC2)C1)OP(=O)(O)O (stereo not drawn) [I-f]	+		+		+	+
CCC(C)CCC(=O)OC1CCCC(C=CC=CC(O)CC(OP(=O)(O)O)C(O)(C=CC2OC(=O)C=CC2CC)CCN)C1 (stereo not drawn) [I-g]	+		+		+	+
CCC1C=CC(=O)OC1C=CC(O)(CCN)C(CC(O)C=CC=CC1CCCC(OC(=O)CCCCC(C)C)C1)OP(=O)(O)O (stereo not drawn) [I-h]	+		+		- (- (lesion having a diameter of not less than 10 mm formed))	- (- (lesion having a diameter of not less than 10 mm formed))
CCCCCCCC(=O)OC1CCCC(C=CC=CC(O)CC(OP(=O)(O)O)C(O)(C=CC2OC(=O)C=CC2CC)CCN)C1 (stereo not drawn) [I-i]	+		+		- (- (lesion having a diameter of not less than 10 mm formed))	- (- (lesion having a diameter of not less than 10 mm formed))
CC12CC1(C)C(=O)N(c1cc(Cl)cc(Cl)c1)C2=O (stereo not drawn) [Procymidone, reference compound]	- (- (lesion having a diameter of not less than 10 mm formed))	- (- (lesion having a diameter of not less than 10 mm formed))	- (- (lesion having a diameter of not less than 10 mm formed))	+		

From patent publication EP0329361A2, “2-pyranone derivatives and process for production thereof” (priority 1988, dated 1989)
